# Laboratory results reported in patent US20220152024A1, “COMBINATIONS USEFUL IN A METHOD FOR TREATING SARCOMA” (PTC THERAPEUTICS, INC., priority 2019, published 2022).
# Entries after “also recorded” stand apart in the source; their conditions may differ. Like-named read-outs stand apart in the source and are kept apart here. Marks after values point to notes of the source that are not given here.
# Experiments:
# [1] = system: SK-LMS-1 human leiomyosarcoma tumors; type: in vivo
# Source text: (§1) Leiomyosarcoma accounts for 5-10% of soft tissue sarcomas. Typically, leiomyosarcomas have a complex karyotype and are associated with p53 mutations (Yang J, Du X, Chen K, Ylipaa A, Lazar A J, Trent J, Lev D, Pollock R, Hao X, Hunt K, Zhang W. Genetic aberrations in soft tissue leiomyosarcoma. Cancer Lett. 2009 Mar. 8; 275(1):1-8). The cell line, SK-LMS-1 has a complex karyotype and a mutated p53 gene. Chemotherapy with doxorubicin-based drug regimens such as a combination of doxorubicin and ifosfamide is the standard of care. However, these regimens usually result in cardiotoxicity, rapid development of resistance, and no significant survival advantage. In a previous study utilizing the SK-LMS-1 model, Compound 1 (Cpd 1) was tested at a constant dose (12.5 mg/kg biw) in combination with varying doses/regimens of doxorubicin and gemcitabine. […] Here, SK-LMS-1 cells were passaged for a more extended time in vivo relative to the prior study generating a more aggressive tumor model. This study tested the efficacy of Cpd 1 alone and in combination with the chemotherapeutic agents Doxil and DTIC in the treatment of mice bearing SK-LMS-1 human leiomyosarcoma tumors.
# (§2) A negative coefficient indicates greater inhibition in the combination group than expected based on the activity of the monotherapies. The more negative the coefficient, the greater the activity of the combination.
# Tumors were ˜222 mm3 in volume when dosing was initiated. […] Interaction coefficients were determined using the AUCs of the Day 0 to Day 28 tumor volume vs day curves. To take into account the data after Day 28, interaction coefficients were calculated for the median time to reach 1000 mm^3. A negative interaction coefficient indicates synergy.
# as §2
# [2] = system: SK-LMS-1 model; experiment: Previous study in the SK-LMS-1 model (doxorubicin, gemcitabine combinations); type: in vivo; conditions: Cpd 1 12.5 mg/kg biw with varying doses/regimens of doxorubicin and gemcitabine
# Source text: as §1
# [3] = system: SK-UT-1 leiomyosarcoma tumor cells; type: in vivo
# Description: as §2
# This study utilized SK-UT-1 leiomyosarcoma tumor cells implanted into the flank of athymic nude mice.
# To compare tumor growth, the area under the curve comparing tumor volume vs day for each individual mouse was calculated and then averaged for each group.
# Interaction coefficients were determined using the AUCs of the Day 0 to Day 25 tumor volume vs day curves. To take into account the data after Day 25, interaction coefficients were also calculated for the median time to reach 1000 mm3. A negative interaction coefficient indicates synergy.
# [4] = system: advanced solid tumor (AST) cancers; experiment: Phase 1a clinical trial NCT02404480, safety, PK and response; type: in vivo, human; conditions: 31 evaluable patients; Compound 1 alone
# Description: (§3) FIG. 5 summarizes the duration of Compound 1 treatment alone in an […] (AST) Phase 1a clinical trial (NCT02404480) of 31 evaluable patients to determine safety and pharmacokinetics. The initial human dose of 0.65 mg/kg was based on a rat model MTD of 40 mg/kg, with subsequent higher human dose ranging at 1.3 mg/kg, 2.6 mg/kg, 5.2 mg/kg, 7 mg/kg, and 10 mg/kg. The Standard 3+3 trial design, with 3 patients per cohort, allowed dose escalation for each cohort absent a dose-limiting toxicity (DLT), enabling the next cohort to be treated at the next higher dose. In the event any one patient in the cohort experienced a DLT at a particular dose, the next cohort would be treated at the same dose. A full pharmacokinetic review of each patient was taken on Day 1 and Day 29, with a partial review taken on Day 15.
# (§4) NCT02404480: Phase 1 Study, open-label, first-in-human, evaluated safety and pharmacokinetic (PK) profile for use of Compound 1 in patients with advanced solid tumor (AST) cancers, determined the RP2D (recommended phase II clinical trial dose) according to escalating dose levels.
# (§5) Compound 1 was administered as a […] in NCT02404480, a Phase 1a clinical trial designed to evaluate safety and PK profile for use of Compound 1 in patients with advanced solid tumor (AST) cancers.
# [5] = as above; type: in vivo, human; conditions: human, in vivo, 2.6 mg/kg, NCT02404480 PK profile, FIG. 6
# Description: as §3, §4, §5
# [6] = Predicted effective human dose from mouse exposure and measured human exposure (FIGS. 6A-D); type: in vivo; conditions: monotherapy, orally twice per week
# Source text: FIGS. 6A-D summarize the pharmacokinetics of Compound 1 administered as a monotherapy in humans (as measured by AUCLast and Cmax) two times per week in the AST trial, wherein the dotted line in each figure indicates free drug concentration.
# (§6) In contrast to use of allometric conversion factors, FIGS. 6A-D summarize the pharmacokinetics of Compound 1 administration in humans, showing that a conversion factor for Compound 1 based on free drug in humans compared to free drug in mice can be derived to estimate the effective target AUC and Cmax, thus accounting for the differences in free drug between these species.
# (§7) As shown by the dashed line, this predicts that the estimated dose in a human patient of about 2.0 mg/kg (biw) or higher of Compound 1 would be effective.
# As shown by the dashed line, this predicts that the estimated dose in a human patient of about 1.4 mg/kg (biw) or higher of Compound 1 would be effective.
# As shown by the dashed line, this predicts that the estimated dose in a human patient of about 2.3 mg/kg (biw) or higher of Compound 1 would be effective.
# As shown by the dashed line, this predicts that the estimated dose in a human patient of about 1.8 mg/kg (biw) or higher of Compound 1 would be effective.
# [7] = Rat model MTD; conditions: in vivo
# [8] = Exposure (AUC, Cmax) of Compound 1 in the mouse, free and total drug; conditions: in vivo, po
# Description: as §6, §7
# [9] = DTIC 4 mg/kg IP tiw, alone or with Cpd 1 12.5 mg/kg PO biw
# [10] = DTIC 21 mg/kg IP qd5, alone or with Cpd 1 12.5 mg/kg PO biw
# [11] = docetaxel 15 mg/kg IP QW6, alone or with Cpd 1 12.5 mg/kg
# [12] = docetaxel 15 mg/kg IP qw6, alone or with Cpd 1 12.5 mg/kg biw6
compound,measurement,setting,value
"CN(C)/N=N/c1[nH]cnc1C(N)=O [DTIC, dacarbazine, reference compound]",median time for tumor volume for individual mice to reach 1000 mm^3,[1]; [9],19 days
same,percent reduction in tumor volume at Day 28 (%),[1]; [9],0%
same,effect on tumor growth,"[1]; DTIC 4 mg/kg IP tiw, alone or with Cpd 1 12.5 mg/kg biw",no activity
same,median time for tumor volume for individual mice to reach 1000 mm^3,[1]; [10],35 days
same,percent reduction in tumor volume at Day 28 (%),[1]; [10],74* %
"COc1cccc2c1C(=O)c1c(O)c3c(c(O)c1C2=O)C[C@@](O)(C(=O)CO)C[C@@H]3O[C@H]1C[C@H](N)[C@H](O)[C@H](C)O1 [Doxorubicin, doxorubicin]",efficacy,[2],not active as a monotherapy or in combination with Cpd 1
CC(=O)O[C@@]12CO[C@@H]1C[C@H](O)[C@@]1(C)C(=O)[C@H](O)C3=C(C)[C@@H](OC(=O)[C@H](O)[C@@H](NC(=O)OC(C)(C)C)c4ccccc4)C[C@@](O)([C@@H](OC(=O)c4ccccc4)[C@H]21)C3(C)C [docetaxel],effect on tumor growth,"[3]; docetaxel 5 mg/kg IP BIW5.5, alone or with Cpd 1",no efficacy as a monotherapy
same,percent reduction in tumor volume at Day 28 (%),"[3]; docetaxel 5 mg/kg IP biw5.5 (11 doses), alone or with Cpd 1 12.5 mg/kg biw6",2.27%
same,median time for tumor volume for individual mice to reach 1000 mm^3,"[3]; docetaxel 5 mg/kg IP biw5.5, alone or with Cpd 1 12.5 mg/kg biw6",18.9 days
same,effect on tumor growth,"[3]; docetaxel 15 mg/kg IP QW6, alone or with Cpd 1",tumor growth was delayed; also recorded: more effective than Cpd 1
same,inhibition vs vehicle at Day 25,[3]; [11],78%
same,mean tumor size at Day 25,[3]; [11],1486 mm^3
same,median time for tumor volume for individual mice to reach 1000 mm^3 (Days),[3]; [12],50.1* Days
same,percent reduction in tumor volume at Day 28 (%),[3]; [12],77.8* %
"Cc1nc2ccc(F)cc2n1-c1nc(N)c(F)c(Nc2ccc(C(F)(F)F)cc2)n1 [Compound 1, 5-fluoro-2-(6-fluoro-2-methyl-1H-benzo[d]imidazol-1-yl)-N^4-[4-(trifluoromethyl)phenyl]pyrimidine-4,6-diamine]",patients with a mixed/partial response,[4],2/31
same,patients with stable disease,[4],5/31
same,AUC(0-t),[5]; read-out: target AUCLast,13100 ng·h/mL
same,Cmax,[5]; read-out: target Cmax,679 ng/mL
same,"minimum effective amount for a 70 kg human subject, for Cmax",[6]; targeting free drug at 12.5 mg/kg in the mouse,about 124 mg
same,"minimum effective amount for a 70 kg human subject, for Cmax",[6]; targeting total drug at 12.5 mg/kg in the mouse,about 226 mg
same,MTD,[7],40 mg/kg
same,median time for tumor volume for individual mice to reach 1000 mm^3,[1]; Cpd 1 12.5 mg/kg PO biw alone,23 days
same,percent reduction in tumor volume at Day 28 (%),[1]; Cpd 1 12.5 mg/kg PO biw alone,21%
same,mean tumor volume on Day 32,"[1]; Cpd 1 12.5 mg/kg biw alone, all mice euthanized",1607 mm^3
same,mean tumor volume on Day 28,"[1]; Cpd 1 12.5 mg/kg biw alone, ~222 mm3 at start of dosing",1388 mm3
same,AUC,[8]; Dose in Mouse 10 mg/kg,21000 ng·h/mL
same,Cmax,[8]; Dose in Mouse 10 mg/kg,1100 ng/mL
same,AUC,[8]; Dose in Mouse 12.5 mg/kg,26200 ng·h/mL
same,Cmax,[8]; Dose in Mouse 12.5 mg/kg,1380 ng/mL
same,inhibition vs vehicle at Day 25,[3]; Cpd 1 12.5 mg/kg BIW6 alone,35%
same,delay of the median time for tumor growth to reach 1000 mm^3,"[3]; Cpd 1 12.5 mg/kg BIW6 alone, vs vehicle",~1.7 fold
same,median time for tumor volume for individual mice to reach 1000 mm^3,[3]; Cpd 1 12.5 mg/kg PO biw6 alone,31.2 days
same,percent reduction in tumor volume at Day 28 (%),[3]; Cpd 1 12.5 mg/kg PO biw6 alone,35.4* %
same,mean tumor volume on Day 42,"[3]; Cpd 1 12.5 mg/kg alone, all mice euthanized",1508 mm^3
same,mean tumor volume on Day 25,"[3]; Cpd 1 12.5 mg/kg alone, ~163 mm^3 at start of dosing",983 mm^3
